The values that follow come from patent US20240150377A1, “MODULATORS OF CYSTIC FIBROSIS TRANSMEMBRANE CONDUCTANCE REGULATOR” (VERTEX PHARMACEUTICALS INCORPORATED, priority 2020, published 2024).

In this assay the target is T1, CFTR (Homo sapiens, UniProt P13569, DEL508-508).
T1 construct: endogenous in cells; host or cells: primary human bronchial epithelial cells from CF subjects (F508del/MF-HBE), differentiated at air-liquid interface
Nature of the assay: HBE assay: Ussing chamber assay of CFTR-mediated short-circuit currents. The assay is classed as cell-based. Conditions: for activation at 10 µM: read-out: HBE Activity at 10 μM (%); for EC50: read-out: HBE EC50. The gist of the method:
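CFTR-mediated Isc (μA/cm²) equals the peak response to apical 20 μM forskolin minus the residual after a 20 μM each BPO/GlyH-101/CFTR inhibitor 172 cocktail, recorded in Ussing chambers at Vhold 0 mV, 37 °C, pH 7.4, with 30 μM apical amiloride. Cells were F508del/MF HBE cultures preincubated 18-24 h with corrector (concentration range or 10 μM) plus 1 μM ivacaftor in 20% human serum.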

Setting [1] is: Table 13, read-out: HBE Max Activity (%).
[2] abbreviates: Table 12, read-out: HBE Max Activity (%).
Where [3] appears, read: Table 11, read-out: HBE Max Activity (%).
Where [4] appears, read: Table 10, read-out: HBE Max activity (%).

Like-named read-outs stand apart in the source and are kept apart here. Some results are limits rather than exact numbers.

T1 sequence (P13569 with tags, fused parts or gaps DEL508-508): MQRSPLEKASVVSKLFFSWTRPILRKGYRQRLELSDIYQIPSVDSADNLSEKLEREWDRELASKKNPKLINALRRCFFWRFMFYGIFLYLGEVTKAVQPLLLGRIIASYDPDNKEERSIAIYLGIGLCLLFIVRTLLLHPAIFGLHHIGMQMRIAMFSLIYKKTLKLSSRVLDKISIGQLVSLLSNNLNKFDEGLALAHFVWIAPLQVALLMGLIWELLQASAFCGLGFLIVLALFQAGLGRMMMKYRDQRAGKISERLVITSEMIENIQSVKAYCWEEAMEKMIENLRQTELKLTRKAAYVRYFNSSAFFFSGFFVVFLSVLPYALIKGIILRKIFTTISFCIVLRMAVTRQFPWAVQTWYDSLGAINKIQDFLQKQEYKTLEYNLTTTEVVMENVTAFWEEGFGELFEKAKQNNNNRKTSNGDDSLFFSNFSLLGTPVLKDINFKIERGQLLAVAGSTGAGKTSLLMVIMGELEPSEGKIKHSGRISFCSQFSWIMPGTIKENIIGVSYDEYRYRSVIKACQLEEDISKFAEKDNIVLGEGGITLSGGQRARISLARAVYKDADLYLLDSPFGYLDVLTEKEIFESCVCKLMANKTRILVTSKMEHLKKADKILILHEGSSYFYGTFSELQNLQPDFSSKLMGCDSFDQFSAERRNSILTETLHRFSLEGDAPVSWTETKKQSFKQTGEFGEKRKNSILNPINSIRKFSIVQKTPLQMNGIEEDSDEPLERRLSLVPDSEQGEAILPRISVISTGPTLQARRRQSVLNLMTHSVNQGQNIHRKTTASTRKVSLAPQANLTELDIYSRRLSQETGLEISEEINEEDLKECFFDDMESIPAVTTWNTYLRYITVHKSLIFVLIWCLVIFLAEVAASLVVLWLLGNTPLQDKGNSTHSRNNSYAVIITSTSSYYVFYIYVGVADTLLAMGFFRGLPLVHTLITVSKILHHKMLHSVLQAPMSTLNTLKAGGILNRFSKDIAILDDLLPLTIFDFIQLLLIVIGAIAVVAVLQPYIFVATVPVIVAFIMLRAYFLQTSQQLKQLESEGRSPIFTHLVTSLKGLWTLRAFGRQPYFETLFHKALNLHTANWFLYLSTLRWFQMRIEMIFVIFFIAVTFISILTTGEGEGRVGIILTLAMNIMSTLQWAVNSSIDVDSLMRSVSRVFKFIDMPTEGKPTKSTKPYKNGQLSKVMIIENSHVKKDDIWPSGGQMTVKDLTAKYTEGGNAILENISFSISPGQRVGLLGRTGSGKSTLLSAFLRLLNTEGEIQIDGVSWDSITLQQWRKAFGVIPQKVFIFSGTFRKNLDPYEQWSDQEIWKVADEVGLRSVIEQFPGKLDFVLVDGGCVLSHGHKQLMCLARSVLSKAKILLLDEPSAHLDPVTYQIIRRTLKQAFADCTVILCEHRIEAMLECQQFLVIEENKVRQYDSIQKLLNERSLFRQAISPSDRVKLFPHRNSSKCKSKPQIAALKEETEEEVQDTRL

For the molecule `Cc1cccc(C)c1-c1cc2nc(n1)NS(=O)(=O)c1cccc(c1)C(=O)N(Cc1ccc(C3COC(C)(C)C3)cn1)[C@H](CC(C)(C)C)CO2` (stereo partly shown) [Compound 1062], the activation at 10 µM (Table 13) was greater than 600%.

As for `Cc1cccc(C)c1-c1cc2nc(n1)NS(=O)(=O)c1cccc(c1)C(=O)N(Cc1ccc(N3CC4(COC4)C3)cn1)[C@H](CC(C)(C)C)CO2` [Compound 1063], under “Table 13”, the EC50 (usually the concentration giving half of the maximal effect) is less than 1000 nM. Besides, the Emax under setting [1] was greater than 60%.

Turning to `Cc1cccc(C(C)C)c1-c1cc2nc(n1)NS(=O)(=O)c1cccc(c1)C(=O)N(Cc1cnc(C3CCOCC3)cn1)[C@H](CC(C)(C)C)CO2` [Compound 1064], where the note is “Table 12”, the EC50 was less than 1000 nM. For the same molecule, the Emax under setting [2] was greater than 60%.

Regarding `Cc1cccc(C)c1-c1cc2nc(n1)NS(=O)(=O)c1cccc(c1)C(=O)C(Cc1ccc(C3CCCOC3)cn1)[C@H](CC(C)(C)C)CO2` (stereo partly shown) [Compound 1065], the EC50 (Table 12) is less than 1000 nM. Besides, under setting [2], the Emax is greater than 60%.

On to `COc1ccc(F)c(CN2C(=O)c3cccc(c3)S(=O)(=O)Nc3nc(cc(-c4c(C)cccc4C)n3)OC[C@H]2CC(C)(C)C)n1` [Compound 1066], for which the EC50 (Table 13) was less than 1000 nM. Besides, under setting [1], the Emax is greater than 60%.

`COc1cnc(CN2C(=O)c3cccc(c3)S(=O)(=O)Nc3nc(cc(-c4c(C)cccc4C)n3)OC[C@H]2CC(C)(C)C)c(Cl)c1` [Compound 1067]: the concentration for a half-maximal effect (EC50) (Table 13) is less than 1000 nM. Besides, under setting [1], the Emax was greater than 60%.

Consider `Cc1cccc(C)c1-c1cc2nc(n1)NS(=O)(=O)c1cccc(c1)C(=O)N(Cc1ncccc1F)[C@H](CC(C)(C)C)CO2` [Compound 1068], for which the EC50 (Table 13) is less than 1000 nM. The Emax under setting [1] was greater than 60%.

In the case of `Cc1cncc(CN2C(=O)c3cccc(c3)S(=O)(=O)Nc3nc(cc(-c4c(C)cccc4C)n3)OC[C@H]2CC(C)(C)C)n1` [Compound 1069], for the setting “Table 11”, the EC50 was less than 1000 nM. The Emax under setting [3] is greater than 60%.

Take `Cc1ccnc(CN2C(=O)c3cccc(c3)S(=O)(=O)Nc3nc(cc(-c4c(C)cccc4C)n3)OC[C@H]2CC(C)(C)C)c1` [Compound 1070]: the EC50 (Table 11) was less than 1000 nM. Further, the Emax under setting [3] was greater than 60%.

On to `Cc1cccc(C)c1-c1cc2nc(n1)NS(=O)(=O)c1cccc(c1)C(=O)N(Cc1cc(C3CC3)on1)[C@H](CC(C)(C)C)CO2` [Compound 1071], for which the EC50 (Table 11) was less than 1000 nM. The Emax under setting [3] is greater than 60%.

Take `Cc1cccc(C)c1-c1cc2nc(n1)NS(=O)(=O)c1cccc(c1)C(=O)N(Cc1ncc(N(C)C)cn1)[C@H](CC(C)(C)C)CO2` [Compound 1072]: the Emax under setting [4] is greater than 60%.

For `Cc1cccc(C)c1-c1cc2nc(n1)NS(=O)(=O)c1cccc(c1)C(=O)N(Cc1ccc(C(C)(C)C)nc1)[C@H](CC(C)(C)C)CO2` [Compound 1074], under setting [4], the Emax was greater than 60%.

As for `Cc1ccc2ccccc2c1-c1cc2nc(n1)NS(=O)(=O)c1cccc(c1)C(=O)N(Cc1ccc(N3CCOCC3)cn1)[C@H](CC(C)(C)C)CO2` [Compound 1075], under “Table 10”, the EC50 is less than 1000 nM. Also, under setting [4], the Emax is greater than 60%.

Consider `Cc1cccc(C)c1-c1cc2nc(n1)NS(=O)(=O)c1cccc(c1)C(=O)N(Cc1ncc(Cl)cc1F)[C@H](CC(C)(C)C)CO2` [Compound 1111], for which the EC50 (Table 13) is less than 1000 nM. Under setting [1], the Emax was greater than 60%.

On to `COc1cnc(CN2C(=O)c3cccc(c3)S(=O)(=O)Nc3nc(cc(-c4c(C)cccc4C)n3)OC[C@H]2CC(C)(C)C)c(F)c1` [Compound 1112], for which, for the setting “Table 13”, the EC50 is less than 1000 nM. In addition, the Emax under setting [1] was greater than 60%.

In the case of `Cc1ccc(F)c(CN2C(=O)c3cccc(c3)S(=O)(=O)Nc3nc(cc(-c4c(C)cccc4C)n3)OC[C@H]2CC(C)(C)C)n1` [Compound 1113], the EC50 (Table 13) was less than 1000 nM. The Emax under setting [1] is greater than 60%.

Consider `Cc1cccc(C)c1-c1cc2nc(n1)NS(=O)(=O)c1cccc(c1)C(=O)N(Cc1cc(OC(C)C)ccn1)[C@H](CC(C)(C)C)CO2` [Compound 1114], for which the activation at 10 µM (Table 13) is greater than 600%.

Turning to `Cc1cccc(C)c1-c1cc2nc(n1)NS(=O)(=O)c1cccc(c1)C(=O)N(CC1(C(=O)NC3CCCCC3)CC1)[C@H](CC(C)(C)C)CO2` [Compound 1115], under “Table 13”, the activation at 10 µM was greater than 600%.

For `Cc1cc(OC(C)C)cnc1CN1C(=O)c2cccc(c2)S(=O)(=O)Nc2nc(cc(-c3c(C)cccc3C)n2)OC[C@H]1CC(C)(C)C` [Compound 1116], the EC50 (Table 13) is less than 1000 nM. Moreover, the Emax under setting [1] was greater than 60%.

For `COc1cc(OC(C)C)cnc1CN1C(=O)c2cccc(c2)S(=O)(=O)Nc2nc(cc(-c3c(C)cccc3C)n2)OC[C@H]1CC(C)(C)C` [Compound 1117], the EC50 (Table 13) was less than 1000 nM. For the same molecule, the Emax under setting [1] is greater than 60%.

As to `Cc1cccc(C)c1-c1cc2nc(n1)NS(=O)(=O)c1cccc(c1)C(=O)N(Cc1ncc(N3CCC(C)(C)C3)cc1C(F)(F)F)[C@H](CC(C)(C)C)CO2` [Compound 1118], the EC50 (Table 13) is less than 1000 nM. Besides, the Emax under setting [1] was greater than 60%.

As for `Cc1cccc(C)c1-c1cc2nc(n1)NS(=O)(=O)c1cccc(c1)C(=O)N(Cc1ncc(Br)cc1C(F)(F)F)[C@H](CC(C)(C)C)CO2` [Compound 1119], the activation at 10 µM (Table 13) was greater than 600%.

Turning to `Cc1cccc(C)c1-c1cc2nc(n1)NS(=O)(=O)c1cccc(c1)C(=O)N(Cc1ncc(OC(C)C)cn1)[C@H](CC1(C(F)(F)F)CC1)CO2` [Compound 1120], for the setting “Table 13”, the EC50 is less than 1000 nM. Also, the Emax under setting [1] was greater than 60%.

Regarding `Cc1cccc(C)c1-c1cc2nc(n1)NS(=O)(=O)c1cccc(c1)C(=O)N(Cc1ncc(OC(C)C)cn1)[C@H](CC(C)(C)C(F)(F)F)CO2` [Compound 1121], where the note is “Table 13”, the EC50 was less than 1000 nM. For the same molecule, the Emax under setting [1] is greater than 60%.

For the molecule `Cc1cccc(C)c1-c1cc2nc(n1)NS(=O)(=O)c1cccc(c1)C(=O)N(Cc1cccc(N3CCCC3C(C)(C)O)n1)[C@H](CC(C)(C)C)CO2` (stereo partly shown) [Compound 1123], where the note is “Table 13”, the activation at 10 µM was greater than 600%.

For the molecule `Cc1cccc(C)c1-c1cc2nc(n1)NS(=O)(=O)c1cccc(c1)C(=O)N(Cc1nc3c(ccn3C(C)C)cc1F)[C@H](CC(C)(C)C)CO2` [Compound 1124], under “Table 13”, the EC50 was less than 1000 nM. Further, the Emax under setting [1] was greater than 60%.

With `Cc1cccc(C)c1-c1cc2nc(n1)NS(=O)(=O)c1cccc(n1)C(=O)N(Cc1ccc(N(C)CC(C)(C)C)cn1)[C@H](CC(C)(C)C)CO2` [Compound 1125], the EC50 (Table 13) was 1000 to 3000 nM. The Emax under setting [1] was greater than 60%.

Turning to `Cc1cccc(C)c1-c1cc2nc(n1)NS(=O)(=O)c1cccc(n1)C(=O)N(Cc1cncc(N(C)CC(C)(C)C)n1)[C@H](CC(C)(C)C)CO2` [Compound 1126], for the setting “Table 13”, the EC50 is less than 1000 nM. The Emax under setting [1] was greater than 60%.

`Cc1cccc(C)c1-c1cc2nc(n1)NS(=O)(=O)c1cccc(n1)C(=O)N(Cc1cccc(N3CCCC3C)n1)[C@H](CC(C)(C)C)CO2` (stereo partly shown) [Compound 1127]: the EC50 (Table 13) was less than 1000 nM. For the same molecule, under setting [1], the Emax was greater than 60%.

On to `Cc1cccc(C)c1-c1cc2nc(n1)NS(=O)(=O)c1cccc(n1)C(=O)N(Cc1ncc(OC(C)C)cn1)[C@H](CC(C)(C)C)CO2` [Compound 1128], for which the EC50 (Table 13) is less than 1000 nM. Besides, the Emax under setting [1] was greater than 60%.

`Cc1cccc(C)c1-c1cc2nc(n1)NS(=O)(=O)c1cccc(c1)C(=O)N(Cc1ncc(OC3CC3)cn1)[C@H](CC(C)(C)C)CO2` [Compound 1129]: the concentration giving a half-maximal response (EC50) (Table 13) is less than 1000 nM. Besides, the Emax under setting [1] was greater than 60%.

With `Cc1cccc(C)c1-c1cc2nc(n1)NS(=O)(=O)c1cccc(c1)C(=O)N(Cc1nc(C3CCC3)no1)[C@H](CC(C)(C)C)CO2` [Compound 1130], where the note is “Table 13”, the activation at 10 µM is greater than 600%.

Regarding `Cc1cccc(C)c1-c1cc2nc(n1)NS(=O)(=O)c1cccc(c1)C(=O)N(Cc1nc(C(C)(C)C)no1)[C@H](CC(C)(C)C)CO2` [Compound 1131], under “Table 13”, the activation at 10 µM was greater than 600%.

Regarding `Cc1cccc(C)c1-c1cc2nc(n1)NS(=O)(=O)c1cccc(c1)C(=O)N(Cc1nccc(NC(C)C)c1F)[C@H](CC(C)(C)C)CO2` [Compound 1132], the EC50 (Table 13) was less than 1000 nM. Besides, the Emax under setting [1] is greater than 60%.

As for `Cc1cc(N2CCC(C)(C)C2)cnc1CN1C(=O)c2cccc(c2)S(=O)(=O)Nc2nc(cc(-c3c(C)cccc3C)n2)OC[C@H]1CC(C)(C)C` [Compound 1135], the EC50 (Table 13) is less than 1000 nM. For the same molecule, the Emax under setting [1] is greater than 60%.

`COCCCN(c1cccc(CN2C(=O)c3cccc(c3)S(=O)(=O)Nc3nc(cc(-c4c(C)cccc4C)n3)OC[C@H]2CC(C)(C)C)n1)C(C)C` [Compound 1136]: the EC50 (Table 13) is less than 1000 nM. Also, the Emax under setting [1] was greater than 60%.

Regarding `CCCCN(c1cccc(CN2C(=O)c3cccc(c3)S(=O)(=O)Nc3nc(cc(-c4c(C)cccc4C)n3)OC[C@H]2CC(C)(C)C)n1)C(C)C` [Compound 1137], for the setting “Table 13”, the EC50 is less than 1000 nM. Besides, the Emax under setting [1] is greater than 60%.

With `Cc1cccc(C)c1-c1cc2nc(n1)NS(=O)(=O)c1cccc(c1)C(=O)N(Cc1cccc(C(=O)N3CCC(C)(C)C3)n1)[C@H](CC(C)(C)C)CO2` [Compound 1138], the EC50 (Table 13) is less than 1000 nM. The Emax under setting [1] is greater than 60%.

Regarding `Cc1cccc(C)c1-c1cc2nc(n1)NS(=O)(=O)c1cccc(c1)C(=O)N(Cc1ncc(N3CCC(C)(C)CC3)cc1C(F)(F)F)[C@H](CC(C)(C)C)CO2` [Compound 1139], the EC50 (Table 13) lay within 1000 to 3000 nM. Moreover, the Emax under setting [1] was greater than 60%.

Consider `Cc1ccc(N(C)C2CC3(CC3)C2)nc1CN1C(=O)c2cccc(c2)S(=O)(=O)Nc2nc(cc(-c3c(C)cccc3C)n2)OC[C@H]1CC(C)(C)C` [Compound 1140], for which, under “Table 13”, the EC50 is less than 1000 nM. The Emax under setting [1] is greater than 60%.

For `Cc1cccc(C)c1-c1cc2nc(n1)NS(=O)(=O)c1cccc(n1)C(=O)N(Cc1ncc(N3CCC(C)(C)C3=O)cn1)[C@H](CC(C)(C)C)CO2` [Compound 1141], under “Table 13”, the EC50 was less than 1000 nM. Moreover, the Emax under setting [1] was greater than 60%.
